# Patent US12195482B1 (Arcus Biosciences, Inc., priority 2022, dated 2025)
# Legend:
# Axl = molecular target: T1, Axl (Homo sapiens, UniProt P30530); test: Biochemical potency, HTRF KinEASE-TK kinase assay; set-up: purchased Invitrogen; conditions: 5 nM AXL, 700 μM ATP
# T1 sequence (P30530 26-894): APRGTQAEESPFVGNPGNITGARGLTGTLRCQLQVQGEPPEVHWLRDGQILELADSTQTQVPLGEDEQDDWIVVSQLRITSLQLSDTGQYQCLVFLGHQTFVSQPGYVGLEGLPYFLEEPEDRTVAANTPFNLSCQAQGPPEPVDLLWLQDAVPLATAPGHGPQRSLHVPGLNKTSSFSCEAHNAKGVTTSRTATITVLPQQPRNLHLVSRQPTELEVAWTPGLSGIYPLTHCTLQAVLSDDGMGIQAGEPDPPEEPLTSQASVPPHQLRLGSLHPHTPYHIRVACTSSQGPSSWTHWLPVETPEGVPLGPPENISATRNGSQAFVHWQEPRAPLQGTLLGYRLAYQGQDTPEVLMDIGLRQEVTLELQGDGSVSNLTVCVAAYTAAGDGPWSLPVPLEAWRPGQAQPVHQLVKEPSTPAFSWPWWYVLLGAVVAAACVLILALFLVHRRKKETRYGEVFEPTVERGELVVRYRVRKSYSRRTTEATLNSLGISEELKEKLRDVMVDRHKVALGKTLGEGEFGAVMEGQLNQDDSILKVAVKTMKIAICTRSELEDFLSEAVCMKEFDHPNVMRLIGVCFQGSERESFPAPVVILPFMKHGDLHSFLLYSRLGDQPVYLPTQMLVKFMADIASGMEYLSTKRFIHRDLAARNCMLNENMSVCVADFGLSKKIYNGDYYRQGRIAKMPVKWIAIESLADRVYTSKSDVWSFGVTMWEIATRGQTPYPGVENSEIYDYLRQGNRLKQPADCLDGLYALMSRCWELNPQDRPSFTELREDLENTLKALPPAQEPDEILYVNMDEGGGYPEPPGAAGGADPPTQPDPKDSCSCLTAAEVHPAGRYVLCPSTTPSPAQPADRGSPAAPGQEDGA
# Procedure, shortened: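 Compounds preincubated 1 h at RT with enzyme in 50 mM HEPES pH 7.4, 10 mM MgCl2, 0.01% BSA, 1 mM DTT; reactions then ran 2 h at RT with 5 nM AXL or 1 nM TYRO3/MER, 800 nM TK substrate-biotin, 700 μM ATP, 1% DMSO. HTRF 665/620 ratio read; percent activity calculated.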
# p-AXL = molecular target: T2, p-AXL (Homo sapiens, UniProt P30530); test: Axl phosphorylation inhibition ELISA in HEK293T cells transfected with NanoLuc-tagged AXL; assay type: cell-based; conditions: 1 h compound incubation, media (OptiMEM)
# T2 construct: expressed in transfected cells; host or cells: HEK293T
# T2 sequence (P30530 26-894): T1 sequence (P30530 26-894)
# Procedure, shortened: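 Phospho-AXL detected by luminescence of NanoLuc tag after capture of cell lysate on biotinylated anti-phospho-tyrosine mAb plates (2 h). Lysates came from transiently transfected HEK293T cells treated 1 h at 37° C with serial 2-fold dilutions (22 points). IC50 by standard 4-parameter logistic fitting.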
IC50 (Axl) [nM],IC50 (p-AXL) [nM],SMILES
< 100,100 to 1000,"CN(C)C(=O)c1ccccc1-c1ccc(-c2c[nH]c3ncc(-c4ccc5c(c4)CC[C@@H](N4C6COCC4C6)CC5)cc23)cn1 [Example 170, N,N-Dimethyl-2-(5-{5-[(7S)-7-{3-oxa-6-azabicyclo[3.1.1]heptan-6-yl}-6,7,8,9-tetrahydro-5H-benzo[7]annulen-2-yl]-1H-pyrrolo[2,3-b]pyridin-3-yl}pyridin-2-yl)benzamide]"
< 100,> 1000,"Cc1ccccc1-c1ccc(-c2c[nH]c3ncc(-c4ccc5c(c4)CC[C@@H](N4C6COCC4C6)CC5)cc23)nc1 [Example 97, 6-[(7S)-2-{3-[5-(2-Methylphenyl)pyridin-2-yl]-1H-pyrrolo[2,3-b]pyridin-5-yl}-6,7,8,9-tetrahydro-5H-benzo[7]annulen-7-yl]-3-oxa-6-azabicyclo[3.1.1]heptane]"
< 100,100 to 1000,"Cc1cc(F)cnc1-c1ccc(-c2n[nH]c3ncc(-c4ccc5c(c4)CC[C@@H](N4C6COCC4C6)CC5)cc23)cc1 [Example 28, 6-[(7S)-3-[3-[4-(5-Fluoro-3-methylpyridin-2-yl)phenyl]-1H-pyrazolo[3,4-b]pyridin-5-yl]-6,7,8,9-tetrahydro-5H-benzo[7]annulen-7-yl]-3-oxa-6-azabicyclo[3.1.1]heptane]"
< 100,100 to 1000,"c1ccc(-n2cc(-c3n[nH]c4ncc(-c5ccc6c(c5)CC[C@@H](N5C7COCC5C7)CC6)cc34)cn2)nc1 [Example 168, 6-[(7S)-2-{3-[1-(Pyridin-2-yl)-1H-pyrazol-4-yl]-1H-pyrazolo[3,4-b]pyridin-5-yl}-6,7,8,9-tetrahydro-5H-benzo[7]annulen-7-yl]-3-oxa-6-azabicyclo[3.1.1]heptane]"
< 100,< 100,"Cc1ccc(C)c(-c2ccc(-c3n[nH]c4ncc(-c5ccc6c(c5)CC[C@@H](N5C7COCC5C7)CC6)cc34)cc2)n1 [Example 120, 6-[(7S)-2-{3-[4-(3,6-Dimethylpyridin-2-yl)phenyl]-1H-pyrazolo[3,4-b]pyridin-5-yl}-6,7,8,9-tetrahydro-5H-benzo[7]annulen-7-yl]-3-oxa-6-azabicyclo[3.1.1]heptane]"
< 100,100 to 1000,"CCOc1cccnc1-c1ccc(-c2n[nH]c3ncc(-c4ccc5c(c4)CC[C@@H](N4C6COCC4C6)CC5)cc23)cc1 [Example 181, 6-[(7S)-2-{3-[4-(3-Ethoxypyridin-2-yl)phenyl]-1H-pyrazolo[3,4-b]pyridin-5-yl}-6,7,8,9-tetrahydro-5H-benzo[7]annulen-7-yl]-3-oxa-6-azabicyclo[3.1.1]heptane]"
< 100,< 100,"FC(F)Oc1cccnc1-c1ccc(-c2n[nH]c3ncc(-c4ccc5c(c4)CC[C@@H](N4C6COCC4C6)CC5)cc23)cc1 [Example 99, 6-[(7S)-2-(3-{4-[3-(Difluoromethoxy)pyridin-2-yl]phenyl}-1H-pyrazolo[3,4-b]pyridin-5-yl)-6,7,8,9-tetrahydro-5H-benzo[7]annulen-7-yl]-3-oxa-6-azabicyclo[3.1.1]heptane]"
< 100,< 100,"CN(C)C(=O)c1cccnc1-c1ccc(-c2n[nH]c3ncc(-c4ccc5c(c4)CC[C@@H](N4C6COCC4C6)CC5)cc23)cc1 [Example 167, N,N-Dimethyl-2-(4-{5-[(7S)-7-{3-oxa-6-azabicyclo[3.1.1]heptan-6-yl}-6,7,8,9-tetrahydro-5H-benzo[7]annulen-2-yl]-1H-pyrazolo[3,4-b]pyridin-3-yl}phenyl)pyridine-3-carboxamide]"
< 100,< 100,"COc1cccnc1-c1ccc(-c2c[nH]c3ncc(-c4ccc5c(c4)CC[C@@H](N4C6COCC4C6)CC5)cc23)cc1 [Example 164, 6-[(7S)-2-{3-[4-(3-Methoxypyridin-2-yl)phenyl]-1H-pyrrolo[2,3-b]pyridin-5-yl}-6,7,8,9-tetrahydro-5H-benzo[7]annulen-7-yl]-3-oxa-6-azabicyclo[3.1.1]heptane]"
< 100,< 100,"c1cnc(-c2ccc(-c3c[nH]c4ncc(-c5ccc6c(c5)CC[C@@H](N5C7COCC5C7)CC6)cc34)cc2)c(N2CCOCC2)c1 [Example 5, 6-[(7S)-2-(3-{4-[3-(Morpholin-4-yl)pyridin-2-yl]phenyl}-1H-pyrrolo[2,3-b]pyridin-5-yl)-6,7,8,9-tetrahydro-5H-benzo[7]annulen-7-yl]-3-oxa-6-azabicyclo[3.1.1]heptane]"
< 100,< 100,"Cc1nccnc1-c1ccc(-c2n[nH]c3ncc(-c4ccc5c(c4)CC[C@@H](N4C6COCC4C6)CC5)cc23)cc1 [Example 175, 6-[(7S)-2-{3-[4-(3-Methylpyrazin-2-yl)phenyl]-1H-pyrazolo[3,4-b]pyridin-5-yl}-6,7,8,9-tetrahydro-5H-benzo[7]annulen-7-yl]-3-oxa-6-azabicyclo[3.1.1]heptane]"
< 100,< 100,"CN(C)S(=O)(=O)c1cccnc1-c1ccc(-c2c[nH]c3ncc(-c4ccc5c(c4)CC[C@@H](N4C6COCC4C6)CC5)cc23)cc1 [Example 6, N,N-Dimethyl-2-(4-{5-[(7S)-7-{3-oxa-6-azabicyclo[3.1.1]heptan-6-yl}-6,7,8,9-tetrahydro-5H-benzo[7]annulen-2-yl]-1H-pyrrolo[2,3-b]pyridin-3-yl}phenyl)pyridine-3-sulfonamide]"
< 100,< 100,"Cc1ccnc(-c2ccc(-c3n[nH]c4ncc(-c5ccc6c(c5)CC[C@@H](N5C7COCC5C7)CC6)cc34)cc2)c1C [Example 118, 6-[(7S)-2-{3-[4-(3,4-Dimethylpyridin-2-yl)phenyl]-1H-pyrazolo[3,4-b]pyridin-5-yl}-6,7,8,9-tetrahydro-5H-benzo[7]annulen-7-yl]-3-oxa-6-azabicyclo[3.1.1]heptane]"
< 100,< 100,"Cc1cncnc1-c1ccc(-c2n[nH]c3ncc(-c4ccc5c(c4)CC[C@@H](N4C6COCC4C6)CC5)cc23)cc1 [Example 174, 6-[(7S)-2-{3-[4-(5-Methylpyrimidin-4-yl)phenyl]-1H-pyrazolo[3,4-b]pyridin-5-yl}-6,7,8,9-tetrahydro-5H-benzo[7]annulen-7-yl]-3-oxa-6-azabicyclo[3.1.1]heptane]"
< 100,< 100,"Cn1ccnc1-c1ccc(-c2n[nH]c3ncc(-c4ccc5c(c4)CC[C@@H](N4C6COCC4C6)CC5)cc23)cc1 [Example 111, 6-[(7S)-2-{3-[4-(1-Methyl-1H-imidazol-2-yl)phenyl]-1H-pyrazolo[3,4-b]pyridin-5-yl}-6,7,8,9-tetrahydro-5H-benzo[7]annulen-7-yl]-3-oxa-6-azabicyclo[3.1.1]heptane]"
< 100,< 100,"Cn1ncnc1-c1ccc(-c2n[nH]c3ncc(-c4ccc5c(c4)CC[C@@H](N4C6COCC4C6)CC5)cc23)cc1 [Example 110, 6-[(7S)-2-{3-[4-(1-Methyl-1H-1,2,4-triazol-5-yl)phenyl]-2H-pyrazolo[3,4-b]pyridin-5-yl}-6,7,8,9-tetrahydro-5H-benzo[7]annulen-7-yl]-3-oxa-6-azabicyclo[3.1.1]heptane]"
< 100,100 to 1000,"Cc1cccc(-c2ccc(-c3n[nH]c4ncc(-c5ccc6c(c5)CC[C@@H](N5C7COCC5C7)CC6)cc34)cc2)n1 [Example 116, 6-[(7S)-2-{3-[4-(6-Methylpyridin-2-yl)phenyl]-1H-pyrazolo[3,4-b]pyridin-5-yl}-6,7,8,9-tetrahydro-5H-benzo[7]annulen-7-yl]-3-oxa-6-azabicyclo[3.1.1]heptane]"
< 100,< 100,"c1cnc(-c2ccc(-c3c[nH]c4ncc(-c5ccc6c(c5)CC[C@@H](N5C7COCC5C7)CC6)cc34)cc2)c(C2CC2)c1 [Example 178, 6-[(7S)-2-{3-[4-(3-Cyclopropylpyridin-2-yl)phenyl]-1H-pyrrolo[2,3-b]pyridin-5-yl}-6,7,8,9-tetrahydro-5H-benzo[7]annulen-7-yl]-3-oxa-6-azabicyclo[3.1.1]heptane]"
< 100,< 100,"O=C1CCCN1c1cccnc1-c1ccc(-c2c[nH]c3ncc(-c4ccc5c(c4)CC[C@@H](N4C6COCC4C6)CC5)cc23)cc1 [Example 7, 1-[2-(4-{5-[(7S)-7-{3-Oxa-6-azabicyclo[3.1.1]heptan-6-yl}-6,7,8,9-tetrahydro-5H-benzo[7]annulen-2-yl]-1H-pyrrolo[2,3-b]pyridin-3-yl}phenyl)pyridin-3-yl]pyrrolidin-2-one]"
